{"source": "patent US10472341B2", "about": "“Bicyclic tetrahydrothiazepine derivatives useful for the treatment of neoplastic and/or infectious diseases” (APEIRON BIOLOGICS AG, priority 2015, dated 2019)", "key": {"[1]": {"test_system": "aCD3/aCD28-stimulated human CD4+-T-cells", "test": "IL-2 production and activation markers in aCD3/aCD28 stimulated isolated human CD4+-T-cells", "format": "cell-based", "conditions": "IL-2 production at 3 μM compound", "in_short": "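CD4+ T cells isolated from buffy-coat PBMCs by microbeads were plated in Xvivo medium (1.5*10^5 cells/well) and stimulated with anti-CD3/28 mAbs plus compound. IL-2 measured by ELISA in supernatants at 24 h or 48 h; CD25 and proliferation by flow cytometry, CD69 at 24 h. Activity classes based on IL-2 at 3 μM compound.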"}, "[2]": {"test_system": "aCD3/aCD28-stimulated human PBMCs", "test": "Cytokine production in aCD3/aCD28 stimulated human PBMCs", "format": "cell-based", "conditions": "PBMC, 18 h", "in_short": "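Compound effects measured in buffy-coat PBMCs activated 18 h at 37° C by 1 μg/mL each of soluble anti-CD3 (OKT3) and anti-CD28 (28.2), 1e6 cells/mL. Cytokines in harvested supernatants read by MSD or HTRF.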"}, "[3]": {"conditions": "enhancement of IFN-γ production, read-out: Activity Class IFN-γ"}, "[4]": {"conditions": "enhancement of IL-2 production, read-out: Activity Class IL-2"}}, "note": "Like-named read-outs stand apart in the source and are kept apart here."}
{"smiles": "CCCONC(=O)c1cc2c(cc1F)SC[C@H](N)C(=O)N2Cc1ccc(Cl)cc1.Cl", "note": "[Example 58, (3R)-3-amino-5-[(4-chlorophenyl)methyl]-8-fluoro-4-oxo-N-propoxy-2,3,4,5-tetrahydro-1,5-benzothiazepine-7-carboxamide hydrochloride]", "values": [{"measurement": "Activity Class CD4+", "setting": "[1]", "value": "C (IL-2 production at 3 μM compound concentration between 2-fold increase as compared to mean IL-2 production of stimulated cells in the absence of compounds and <2 ng/mL)"}, {"measurement": "EC50", "setting": "[2]; [3]", "value": "> 5.01", "unit": "µM"}, {"measurement": "EC50", "setting": "[2]; [4]", "value": "> 5.01", "unit": "µM"}]}
{"smiles": "CC(C)NC(=O)c1ccc2c(c1)N(Cc1ccc(C(C)(C)C)cc1)C(=O)[C@@H](N)CS2.Cl", "note": "[Example 4, (3R)-3-amino-5-[(4-tert-butylphenyl)methyl]-4-oxo-N-(propan-2-yl)-2,3,4,5-tetrahydro-1,5-benzothiazepine-7-carboxamide hydrochloride]", "values": [{"measurement": "Activity Class CD4+", "setting": "[1]", "value": "C (IL-2 production at 3 μM compound concentration between 2-fold increase as compared to mean IL-2 production of stimulated cells in the absence of compounds and <2 ng/mL)"}, {"measurement": "EC50", "setting": "[2]; [3]", "value": "> 5.01", "unit": "µM"}, {"measurement": "EC50", "setting": "[2]; [4]", "value": "1.58 to 5.01", "unit": "µM"}]}
{"smiles": "COc1ccc(CNC(=O)c2ccc3c(c2)N(Cc2ccc(OC(F)(F)F)cc2)C(=O)[C@@H](N)CS3)cc1.Cl", "note": "[Example 7, (3R)-3-amino-N-[(4-methoxyphenyl)methyl]-4-oxo-5-{[4-(trifluoromethoxy)-phenyl]methyl}-2,3,4,5-tetrahydro-1,5-benzothiazepine-7-carboxamide hydrochloride]", "values": [{"measurement": "Activity Class CD4+", "setting": "[1]", "value": "B (IL-2 production at 3 μM compound concentration between 2-10 ng/mL)"}, {"measurement": "EC50", "setting": "[2]; [3]", "value": "< 1.58", "unit": "µM"}, {"measurement": "EC50", "setting": "[2]; [4]", "value": "1.58 to 5.01", "unit": "µM"}]}
{"smiles": "CCC(C)NC(=O)c1cc2c(cc1F)S(=O)(=O)C[C@H](N)C(=O)N2Cc1ccc(Cl)cc1.Cl", "note": "(stereo partly drawn) [Example 95, (3R)-3-amino-N-(butan-2-yl)-5-[(4-chlorophenyl)methyl]-8-fluoro-1,1,4-trioxo-2,3,4,5-tetrahydro-1λ^6,5-benzothiazepine-7-carboxamide hydrochloride]", "values": [{"measurement": "Activity Class CD4+", "setting": "[1]", "value": "B (IL-2 production at 3 μM compound concentration between 2-10 ng/mL)"}, {"measurement": "EC50", "setting": "[2]; [3]", "value": "< 1.58", "unit": "µM"}, {"measurement": "EC50", "setting": "[2]; [4]", "value": "1.58 to 5.01", "unit": "µM"}]}
{"smiles": "CC(C)CNNC(=O)c1ccc2c(c1)N(Cc1ccc(Cl)cc1)C(=O)[C@@H](N)CS2.Cl", "note": "[Example 65, (3R)-3-amino-5-[(4-chlorophenyl)methyl]-N′-(2-methylpropyl)-4-oxo-2,3,4,5-tetrahydro-1,5-benzothiazepine-7-carbohydrazide hydrochloride]", "values": [{"measurement": "Activity Class CD4+", "setting": "[1]", "value": "C (IL-2 production at 3 μM compound concentration between 2-fold increase as compared to mean IL-2 production of stimulated cells in the absence of compounds and <2 ng/mL)"}, {"measurement": "EC50", "setting": "[2]; [3]", "value": "1.58 to 5.01", "unit": "µM"}, {"measurement": "EC50", "setting": "[2]; [4]", "value": "1.58 to 5.01", "unit": "µM"}]}
{"smiles": "CC(C)NC(=O)c1ccc2c(c1)N(Cc1ccc(Cl)c(Cl)c1)C(=O)[C@@H](N)CS2(=O)=O.Cl", "note": "[Example 88, (3R)-3-amino-5-[(3,4-dichlorophenyl)methyl]-1,1,4-trioxo-N-(propan-2-yl)-2,3,4,5-tetrahydro-1λ^6,5-benzothiazepine-7-carboxamide hydrochloride]", "values": [{"measurement": "Activity Class CD4+", "setting": "[1]", "value": "C (IL-2 production at 3 μM compound concentration between 2-fold increase as compared to mean IL-2 production of stimulated cells in the absence of compounds and <2 ng/mL)"}, {"measurement": "EC50", "setting": "[2]; [3]", "value": "1.58 to 5.01", "unit": "µM"}, {"measurement": "EC50", "setting": "[2]; [4]", "value": "> 5.01", "unit": "µM"}]}
{"smiles": "CCCCNC(=O)c1ccc2c(c1)N(Cc1ccc(C#N)cc1)C(=O)[C@@H](N)CS2.Cl", "note": "[Example 21, (3R)-3-amino-N-butyl-5-[(4-cyanophenyl)methyl]-4-oxo-2,3,4,5-tetrahydro-1,5-benzothiazepine-7-carboxamide hydrochloride]", "values": [{"measurement": "Activity Class CD4+", "setting": "[1]", "value": "C (IL-2 production at 3 μM compound concentration between 2-fold increase as compared to mean IL-2 production of stimulated cells in the absence of compounds and <2 ng/mL)"}, {"measurement": "EC50", "setting": "[2]; [3]", "value": "< 1.58", "unit": "µM"}, {"measurement": "EC50", "setting": "[2]; [4]", "value": "> 5.01", "unit": "µM"}]}
{"smiles": "Cl.N[C@H]1CS(=O)(=O)c2cc(F)c(C(=O)NC3CC3)cc2N(Cc2ccc(Cl)cc2)C1=O", "note": "[Example 85, (3R)-3-amino-5-[(4-chlorophenyl)methyl]-N-cyclopropyl-8-fluoro-1,1,4-trioxo-2,3,4,5-tetrahydro-1λ^6,5-benzothiazepine-7-carboxamide hydrochloride]", "values": [{"measurement": "Activity Class CD4+", "setting": "[1]", "value": "C (IL-2 production at 3 μM compound concentration between 2-fold increase as compared to mean IL-2 production of stimulated cells in the absence of compounds and <2 ng/mL)"}, {"measurement": "EC50", "setting": "[2]; [3]", "value": "1.58 to 5.01", "unit": "µM"}, {"measurement": "EC50", "setting": "[2]; [4]", "value": "1.58 to 5.01", "unit": "µM"}]}
{"smiles": "C[C@H](NC(=O)c1cc2c(cc1F)S(=O)(=O)C[C@H](N)C(=O)N2Cc1ccc(Cl)cc1)C(F)(F)F.Cl", "note": "[Example 94, (3R)-3-amino-5-[(4-chlorophenyl)methyl]-8-fluoro-1,1,4-trioxo-N-[(2S)-1,1,1-trifluoropropan-2-yl]-2,3,4,5-tetrahydro-1λ^6,5-benzothiazepine-7-carboxamide hydrochloride]", "values": [{"measurement": "Activity Class CD4+", "setting": "[1]", "value": "C (IL-2 production at 3 μM compound concentration between 2-fold increase as compared to mean IL-2 production of stimulated cells in the absence of compounds and <2 ng/mL)"}, {"measurement": "EC50", "setting": "[2]; [3]", "value": "1.58 to 5.01", "unit": "µM"}, {"measurement": "EC50", "setting": "[2]; [4]", "value": "> 5.01", "unit": "µM"}]}
{"smiles": "CC(C)NC(=O)c1ccc2c(c1)N(Cc1ccc(Cl)c(F)c1)C(=O)[C@@H](N)CS2(=O)=O.Cl", "note": "[Example 89, (3R)-3-amino-5-[(4-chloro-3-fluorophenyl)methyl]-1,1,4-trioxo-N-(propan-2-yl)-2,3,4,5-tetrahydro-1λ^6,5-benzothiazepine-7-carboxamide hydrochloride]", "values": [{"measurement": "Activity Class CD4+", "setting": "[1]", "value": "C (IL-2 production at 3 μM compound concentration between 2-fold increase as compared to mean IL-2 production of stimulated cells in the absence of compounds and <2 ng/mL)"}, {"measurement": "EC50", "setting": "[2]; [3]", "value": "1.58 to 5.01", "unit": "µM"}, {"measurement": "EC50", "setting": "[2]; [4]", "value": "> 5.01", "unit": "µM"}]}
{"smiles": "CNC(=O)c1ccc2c(c1)N(Cc1ccc(OC(F)(F)F)cc1)C(=O)[C@@H](N)CS2.Cl", "note": "[Example 17, (3R)-3-amino-N-methyl-4-oxo-5-{[4-(trifluoromethoxy)phenyl]methyl}-2,3,4,5-tetrahydro-1,5-benzothiazepine-7-carboxamide hydrochloride]", "values": [{"measurement": "Activity Class CD4+", "setting": "[1]", "value": "C (IL-2 production at 3 μM compound concentration between 2-fold increase as compared to mean IL-2 production of stimulated cells in the absence of compounds and <2 ng/mL)"}, {"measurement": "EC50", "setting": "[2]; [4]", "value": "> 5.01", "unit": "µM"}]}
{"smiles": "Cl.N[C@H]1CSc2cc(F)c(C(=O)NCC3CCOCC3)cc2N(Cc2ccc(Cl)c(F)c2)C1=O", "note": "[Example 56, (3R)-3-amino-5-[(4-chloro-3-fluorophenyl)methyl]-8-fluoro-N-(oxan-4-ylmethyl)-4-oxo-2,3,4,5-tetrahydro-1,5-benzothiazepine-7-carboxamide hydrochloride]", "values": [{"measurement": "Activity Class CD4+", "setting": "[1]", "value": "C (IL-2 production at 3 μM compound concentration between 2-fold increase as compared to mean IL-2 production of stimulated cells in the absence of compounds and <2 ng/mL)"}, {"measurement": "EC50", "setting": "[2]; [3]", "value": "< 1.58", "unit": "µM"}, {"measurement": "EC50", "setting": "[2]; [4]", "value": "1.58 to 5.01", "unit": "µM"}]}
{"smiles": "Cl.N[C@H]1CS(=O)(=O)c2cc(F)c(C(=O)NCC3CC3)cc2N(Cc2ccc(Cl)cc2)C1=O", "note": "[Example 110, (3R)-3-amino-5-[(4-chlorophenyl)methyl]-N-(cyclopropylmethyl)-8-fluoro-1,1,4-trioxo-2,3,4,5-tetrahydro-1λ^6,5-benzothiazepine-7-carboxamide hydrochloride]", "values": [{"measurement": "Activity Class CD4+", "setting": "[1]", "value": "A (IL-2 production at 3 μM compound concentration >10 ng/mL)"}, {"measurement": "EC50", "setting": "[2]; [3]", "value": "< 1.58", "unit": "µM"}, {"measurement": "EC50", "setting": "[2]; [4]", "value": "< 1.58", "unit": "µM"}]}
{"smiles": "CCCCNC(=O)c1ccc2c(c1)N(Cc1ccc(C(C)(C)C)cc1)C(=O)[C@@H](N)CS2.Cl", "note": "[Example 2, (3R)-3-amino-N-butyl-5-[(4-tert-butylphenyl)methyl]-4-oxo-2,3,4,5-tetrahydro-1,5-benzothiazepine-7-carboxamide hydrochloride]", "values": [{"measurement": "Activity Class CD4+", "setting": "[1]", "value": "B (IL-2 production at 3 μM compound concentration between 2-10 ng/mL)"}, {"measurement": "EC50", "setting": "[2]; [3]", "value": "< 1.58", "unit": "µM"}, {"measurement": "EC50", "setting": "[2]; [4]", "value": "1.58 to 5.01", "unit": "µM"}]}
